Test results published in publication PMC9973015 (mBio, 2023).

Key:
SARS-CoV-2 WT-USA-WA1 = test: microbe, parasite or virus in culture; format: cell-based; conditions: Severe acute respiratory syndrome coronavirus 2, Vero C1008, read-out: SARS-CoV-2 WT-USA-WA1 EC50
human cathepsin L = human cathepsin L (Homo sapiens, UniProt P07711); test: biochemical
SARS-CoV-2 WT-GHB-03021 = test: microbe, parasite or virus in culture; format: cell-based; conditions: Severe acute respiratory syndrome coronavirus 2, Vero C1008, read-out: SARS-CoV-2 WT-GHB-03021 EC50
in vitro = conditions: African green monkey

Chain of human cathepsin L (P07711 114-333): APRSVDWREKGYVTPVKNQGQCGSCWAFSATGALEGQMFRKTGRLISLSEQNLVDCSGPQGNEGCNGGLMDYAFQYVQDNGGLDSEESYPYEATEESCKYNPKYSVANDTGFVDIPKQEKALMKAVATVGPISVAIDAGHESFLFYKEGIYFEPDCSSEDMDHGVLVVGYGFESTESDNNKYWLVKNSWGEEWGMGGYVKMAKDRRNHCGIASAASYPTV

Row | SMILES | EC50 (SARS-CoV-2 WT-USA-WA1) | IC50 (human cathepsin L) | EC50 (SARS-CoV-2 WT-GHB-03021) | CC50 (in vitro) | effect on the viability of uninfected host cells (VeroE6 cells)
1 | Cn1cnc(Cn2c(=O)[nH]/c(=N\c3cc4cn(C)nc4cc3Cl)n(Cc3cc(F)c(F)cc3F)c2=O)n1 [Ensitrelvir, ensitrelvir] | 210 nM | > 10000 nM | – | – | –
2 | CC(C)(C)[C@H](NC(=O)C(F)(F)F)C(=O)N1C[C@H]2[C@@H]([C@H]1C(=O)N[C@H](C#N)C[C@@H]1CCNC1=O)C2(C)C [Nirmatrelvir, nirmatrelvir] | 110 nM | – | 120 nM | > 10000 nM | –
3 | COc1cccc2[nH]c(C(=O)N[C@@H](CC(C)C)C(=O)N[C@@H](C[C@@H]3CCNC3=O)C(=O)CO)cc12 [PF-00835231] | – | 130 nM | 190 nM | > 10000 nM | –
4 | COc1cccc2[nH]c(C(=O)N3C[C@@H]4CCC[C@@H]4[C@H]3C(=O)N[C@@H](C[C@@H]3CCCNC3=O)C(=O)CO)cc12 [ALG-097161, (1S,3aR,6aS)-N-((S)-4-Hydroxy-3-oxo-1-((S)-2-oxopiperidin-3-yl)butan-2-yl)-2-(4-methoxy-1H-indole-2-carbonyl)octahydrocyclopenta[c]pyrrole-1-carboxamide] | 600 nM | > 10000 nM | 590 nM | > 10000 nM | no effect
